Measurements as given in the NIST ThermoML archive (doi:10.1016/j.tca.2014.03.019).
± gives the expanded uncertainty stated by the source.

Legend:
[1] = Molar enthalpy of transition or fusion; details: Crystal; DSC
[2] = Crystal; for vapor or sublimation pressure: Transpiration method; for Normal melting temperature: DTA

CC(=O)Nc1cccc(C(=O)O)c1 [3-(acetylamino)benzoic acid]
Molar enthalpy of transition or fusion [1]: 9.42 ± 0.215 kcal/mol | vapor or sublimation pressure ([2]; 407.2 K): 2.67e-05 ± 1.4e-06 kPa | vapor or sublimation pressure ([2]; 410.9 K): 4.67e-05 ± 2.4e-06 kPa | vapor or sublimation pressure ([2]; 414.1 K): 5.62e-05 ± 2.9e-06 kPa | vapor or sublimation pressure ([2]; 416.6 K): 6.27e-05 ± 3.2e-06 kPa | vapor or sublimation pressure ([2]; 420.9 K): 0.000102 ± 5e-06 kPa | vapor or sublimation pressure ([2]; 423.6 K): 0.000114 ± 6e-06 kPa | vapor or sublimation pressure ([2]; 426.8 K): 0.000148 ± 8e-06 kPa | vapor or sublimation pressure ([2]; 427.3 K): 0.000187 ± 1e-05 kPa | vapor or sublimation pressure ([2]; 430.6 K): 0.000246 ± 1.2e-05 kPa | vapor or sublimation pressure ([2]; 433 K): 0.000315 ± 1.6e-05 kPa | vapor or sublimation pressure ([2]; 434.8 K): 0.000374 ± 1.9e-05 kPa | vapor or sublimation pressure ([2]; 436.1 K): 0.000403 ± 2e-05 kPa | vapor or sublimation pressure ([2]; 440.1 K): 0.00051 ± 2.6e-05 kPa | vapor or sublimation pressure ([2]; 442.9 K): 0.000663 ± 3.3e-05 kPa | Normal melting temperature [2]: 245.1 ± 2.1 °C

CC(=O)Nc1ccccc1C(=O)O [2-acetamidobenzoic acid]
Molar enthalpy of transition or fusion [1]: 11.8 ± 0.239 kcal/mol | vapor or sublimation pressure ([2]; 344.7 K): 1.66e-05 ± 9e-07 kPa | vapor or sublimation pressure ([2]; 351.3 K): 3.37e-05 ± 1.8e-06 kPa | vapor or sublimation pressure ([2]; 357.3 K): 5.58e-05 ± 2.9e-06 kPa | vapor or sublimation pressure ([2]; 363.5 K): 0.000111 ± 6e-06 kPa | vapor or sublimation pressure ([2]; 363.8 K): 0.000116 ± 6e-06 kPa | vapor or sublimation pressure ([2]; 366.2 K): 0.000138 ± 7e-06 kPa | vapor or sublimation pressure ([2]; 369.7 K): 0.000235 ± 1.2e-05 kPa | vapor or sublimation pressure ([2]; 371 K): 0.000243 ± 1.2e-05 kPa | vapor or sublimation pressure ([2]; 373.5 K): 0.000289 ± 1.5e-05 kPa | vapor or sublimation pressure ([2]; 377.4 K): 0.000555 ± 2.8e-05 kPa | vapor or sublimation pressure ([2]; 380 K): 0.000571 ± 2.9e-05 kPa | vapor or sublimation pressure ([2]; 383.8 K): 0.000948 ± 4.8e-05 kPa | vapor or sublimation pressure ([2]; 387.2 K): 0.00117 ± 6e-05 kPa | vapor or sublimation pressure ([2]; 390.4 K): 0.00152 ± 8e-05 kPa | vapor or sublimation pressure ([2]; 393.5 K): 0.00198 ± 0.0001 kPa | Normal melting temperature [2]: 185.2 ± 1.1 °C

CC(=O)Nc1ccc(C(=O)O)cc1 [4-acetamidobenzoic acid]
Molar enthalpy of transition or fusion [1]: 8.17 ± 0.191 kcal/mol | vapor or sublimation pressure ([2]; 395 K): 1.43e-05 ± 8e-07 kPa | vapor or sublimation pressure ([2]; 398.2 K): 2.1e-05 ± 1.2e-06 kPa | vapor or sublimation pressure ([2]; 398.5 K): 2.09e-05 ± 1.1e-06 kPa | vapor or sublimation pressure ([2]; 402.5 K): 2.92e-05 ± 1.6e-06 kPa | vapor or sublimation pressure ([2]; 405.5 K): 3.48e-05 ± 1.8e-06 kPa | vapor or sublimation pressure ([2]; 409.1 K): 5.24e-05 ± 2.7e-06 kPa | vapor or sublimation pressure ([2]; 412.1 K): 6.72e-05 ± 3.5e-06 kPa | vapor or sublimation pressure ([2]; 415.3 K): 0.0001 ± 5e-06 kPa | vapor or sublimation pressure ([2]; 418.9 K): 0.000126 ± 6e-06 kPa | vapor or sublimation pressure ([2]; 422.1 K): 0.000193 ± 1e-05 kPa | vapor or sublimation pressure ([2]; 425 K): 0.000227 ± 1.1e-05 kPa | vapor or sublimation pressure ([2]; 428.5 K): 0.000352 ± 1.8e-05 kPa | vapor or sublimation pressure ([2]; 431.7 K): 0.000393 ± 2e-05 kPa | vapor or sublimation pressure ([2]; 436.2 K): 0.000775 ± 3.9e-05 kPa | vapor or sublimation pressure ([2]; 440 K): 0.000934 ± 4.7e-05 kPa | Normal melting temperature [2]: 262.1 ± 2.1 °C
